# From US7943606B2, “Compositions and methods to control abnormal cell growth” (CanCure Laboratories, LLC, priority 2005, dated 2011)
# Tested on: MCF-7 cells
# Experiment: Viability of MCF-7 breast cancer cells
# Assay type: cell-based, human
# Description: To quantify cell death, around the time when significant and characteristic morphological changes took place, cells were pulse-labeled for 10 minutes with [^3H]thymidine to measure DNA activity as described elsewhere [Tomono, M. and Kiss, Z. (1995), “Ethanol enhances the stimulatory effects of insulin and insulin-like growth factor-I on DNA synthesis in NIH 3T3 fibroblasts,” Biochem. Biophys. Res. Commun. 208, 63-67]. Also, cells were collected as suspensions using trypsin, an established method in cell biology, followed by re-plating of cells in fresh tissue culture medium. If no viable cells were obtained after one week in culture, it meant that the cells at the time of re-plating were dead. Survival values obtained with untreated cells were considered 100%. For the determination of relative number of viable cells after treatments, in most cases the MTT assay was used. This calorimetric assay is based on the ability of living cells, but not dead cells, to reduce 3-(4,5-dimethyl thiazol-2-yl)-2,5-diphenyltetrazolium bromide [Carmichael, J, De Graff, W. G., Gazdar, A. F., Minna, J. D. and Mitchell, J. B. (1987), “Evaluation of tetrazolium-based semi-automated calorimetric assay: Assessment of chemosensitivity testing,” Cancer Res. 47, 936-942]. For this assay, cells were plated in 96-well plates, and the MTT assay was performed both in untreated and treated cell cultures. The MTT assay also was performed at the start of treatments to allow assessment of proliferation rates in the control and treated cell cultures.
# About 50% confluent cultures of MCF-7 cells, cultured in 12-well plates in Dulbecco's modified Eagle's medium (DMEM) supplemented with 10% FBS, were either untreated (FIG. 3A), or were treated with 100 μM CCDTHT (CCompound3) for 72 hours (FIG. 3B). […] This experiment was repeated three times with similar results. In some experiments, cells from the CCDTHT-treated cultures were seeded into 96-well plates, and the MTT assay was performed 96 hours later to test for viable cells.
# The NIH 3T3 (normal) mouse fibroblast, A431 human epidermoid adenocarcinoma, and MCF-7 human breast cancer cells were cultured in DMEM medium containing 10% FBS. The MEL-28 human melanoma cells were cultured in MEM medium containing 10% FBS. The HT-29 human colon adenocarcinoma cells were cultured in McCoy's 5a medium containing 10% FBS. The A549 human lung carcinoma cells were maintained in Ham's F12K medium containing 10% FBS. Cells were seeded into 96-well plates and treated at ˜70-90% confluency. Two hours before treatments the medium was changed for fresh 10% serum medium, and then the cells were incubated for 72 hours in the presence of 0-200 μM of CCompound1 (●) or CCompound3 (CCDTHT) (▴), as indicated. The MTT assay was used to determine cell viability after treatments. The values, shown in FIGS. 5A-5F and expressed as percent decrease in viability compared to the untreated control cells, are the mean±std. dev. of 8 incubations in one experiment. Similar results were obtained in another experiment.
# NIH 3T3, AN3CA, HT-29, MEL-28, and MCF-7 cells were cultured as described earlier. Cells were seeded into 96-well plates; when cells were ˜80-90% confluent, the medium was changed for fresh 10% serum-containing medium, followed by incubations for 72 hours in the absence (□) or presence of 100 μM CCDTHT ? , 2 mM ethanolamine (Etn) ? , or 100 μM CCDTHT+2 mM Etn (▪). The MTT assay was used to determine cell viability. […]
compound,measurement,setting,value
"CC[N+](C)(CC)CCOCc1ccc2sc3ccccc3c(=O)c2c1.[I-] [CCDTHT, N,N-diethyl-N-methyl-2-[(9-oxo-9H-thioxanthen-2-yl)methoxy]-ethanaminium iodide]","decrease in viability, MCF-7","0-200 μM, 72 hours, MTT",similarly large effects
same,viable cells by MTT after re-seeding treated MCF-7 cells,"100 μM 72 hours, re-seeded, MTT 96 hours later",did not detect viable cells
same,"morphology / cell death, MCF-7","100 μM, 72 hours, 12-well plates",practically all cells rounded up
